Experimental data as given in ChEMBL document CHEMBL1126982, “Design and synthesis of a DNA-cleaving metallopeptide” (Bioorg Med Chem Lett, 1993).

How the values were obtained:
Format in all cases: nucleic-acid assay
Nucleic Acid [1] = assay: Cu(II) complex for cleavage of phi X174 RF plasmid DNA from intact form I to nicked form II at 350 uM of Cu(II)
Nucleic Acid [2] = assay: Cu(II) complex for cleavage of phi X174 RF plasmid DNA from intact form I to nicked form II at 250 uM compound and 200 uM Cu(II)
Nucleic Acid [3] = assay: Cu(II) complex for cleavage of phi X174 RF plasmid DNA from intact form I to nicked form II at 250 uM compound and 100 uM Cu(II)

- Activity (Nucleic Acid [1]): > 90%
- Activity (Nucleic Acid [2]): 70%
- Activity (Nucleic Acid [3]): 50%
Substance: H-GGHGYSPTSPSYGK-NH2
